PubChem BioAssay AID2060333 (Molecular Pharmacology Branch, DTP, NCI, 2025)

System: 845751-090-R-J2-PDC tumor spheroid viability
Assay: Anticancer human tumor 845751-090-R-J2-PDC patient-derived head and neck squamous carcinoma cell line growth inhibition [IpAb]
Conditions: spheroids with HUVEC and MSC; for IC50: curve of first compound; for viability, T/C: stronger effect = lower value
Method in brief: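 Spheroids of 60% malignant cells, 25% HUVEC and 15% MSC were exposed to targeted agents combined with ipatasertib or abemaciclib. Doses started at or near clinical Cmax (10 microM when unknown) and fell in half-log steps.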

[1] = second compound 0.1 µM, first compound 0.00949 µM
[2] = second compound 0.1 µM, first compound 0.03 µM
[3] = second compound 0.1 µM, first compound 0.0949 µM
[4] = second compound 0.1 µM, first compound 0.3 µM
[5] = second compound 0.316 µM, first compound 0.00949 µM
[6] = second compound 0.316 µM, first compound 0.03 µM
[7] = second compound 0.316 µM, first compound 0.0949 µM
[8] = second compound 0.316 µM, first compound 0.3 µM
[9] = second compound 1 µM, first compound 0.00949 µM
[10] = second compound 1 µM, first compound 0.03 µM
[11] = second compound 1 µM, first compound 0.0949 µM
[12] = second compound 1 µM, first compound 0.3 µM
[13] = second compound 3.16 µM, first compound 0.00949 µM
[14] = second compound 3.16 µM, first compound 0.03 µM
[15] = second compound 3.16 µM, first compound 0.0949 µM
[16] = second compound 3.16 µM, first compound 0.3 µM
[17] = second compound 10 µM, first compound 0.00949 µM
[18] = second compound 10 µM, first compound 0.03 µM
[19] = second compound 10 µM, first compound 0.0949 µM
[20] = second compound 10 µM, first compound 0.3 µM
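Further: spheroids exposed to compounds for 7 days before readout.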
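Wherever viability, T/C is given: CTG3D luminescence normalised so that 100% = DMSO vehicle control.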

With `CC(=O)c1c(C)c2cnc(Nc3ccc(N4CCNCC4)cn3)nc2n(C2CCCC2)c1=O` + CC(C)NCC(C(=O)N1CCN(c2ncnc3c2C(C)CC3O)CC1)c1ccc(Cl)cc1 the IC50 (second compound 0.1 µM) was over 300 nM, the IC50 (second compound 0.316 µM) was under 0.949 nM and the IC50 (second compound 1 µM) was under 0.949 nM. The IC50 (second compound 3.16 µM) was under 0.949 nM, the IC50 (second compound 10 µM) was under 0.949 nM and the viability, T/C (second compound 0.1 µM, first compound 0.000949 µM) was 62.6%. For the same compound, the viability, T/C (second compound 0.1 µM, first compound 0.003 µM) was 64.7%, the viability, T/C [1] was 51.6% and the viability, T/C [2] was 53.5%. It also gave a viability, T/C [3] of 71.8%, a viability, T/C [4] of 68.5% and a viability, T/C (second compound 0.316 µM, first compound 0.000949 µM) of 39.1%. The viability, T/C (second compound 0.316 µM, first compound 0.003 µM) was 33.9%, the viability, T/C [5] was 32.4% and the viability, T/C [6] was 28.6%. For the same compound, the viability, T/C [7] was 28.4%, the viability, T/C [8] was 34.1% and the viability, T/C (second compound 1 µM, first compound 0.000949 µM) was 26.6%. For the same compound, the viability, T/C (second compound 1 µM, first compound 0.003 µM) was 29.3%, the viability, T/C [9] was 24.1% and the viability, T/C [10] was 34.8%. For the same compound, the viability, T/C [11] was 37.3%, the viability, T/C [12] was 22.9% and the viability, T/C (second compound 3.16 µM, first compound 0.000949 µM) was 29.4%. The viability, T/C (second compound 3.16 µM, first compound 0.003 µM) was 26.1%, the viability, T/C [13] was 26.2% and the viability, T/C [14] was 26.6%. It also gave a viability, T/C [15] of 18%, a viability, T/C [16] of 21.7% and a viability, T/C (second compound 10 µM, first compound 0.000949 µM) of 16.4%. It also gave a viability, T/C (second compound 10 µM, first compound 0.003 µM) of 15.8%, a viability, T/C [17] of 13.7% and a viability, T/C [18] of 13.8%. It also gave a viability, T/C [19] of 11.3% and a viability, T/C [20] of 11.5%.
For `CC(C)(C)c1cnc(CSc2cnc(NC(=O)C3CCNCC3)s2)o1` + CC(C)NCC(C(=O)N1CCN(c2ncnc3c2C(C)CC3O)CC1)c1ccc(Cl)cc1, the IC50 (second compound 0.1 µM) was 30.1 nM, the IC50 (second compound 0.316 µM) was under 9.49 nM and the IC50 (second compound 1 µM) was under 9.49 nM. It also gave an IC50 (second compound 3.16 µM) of under 9.49 nM, an IC50 (second compound 10 µM) of under 9.49 nM and a viability, T/C [1] of 88.9%. For the same compound, the viability, T/C [2] was 50.1%, the viability, T/C [3] was 7.88% and the viability, T/C [4] was 0.63%. For the same compound, the viability, T/C (second compound 0.1 µM, first compound 0.949 µM) was 0.78%, the viability, T/C (second compound 0.1 µM, first compound 3 µM) was 0.94% and the viability, T/C [5] was 34.4%. For the same compound, the viability, T/C [6] was 40.4%, the viability, T/C [7] was 9.45% and the viability, T/C [8] was 0.23%. The viability, T/C (second compound 0.316 µM, first compound 0.949 µM) was 0.27%, the viability, T/C (second compound 0.316 µM, first compound 3 µM) was 0.95% and the viability, T/C [9] was 27%. For the same compound, the viability, T/C [10] was 28.8%, the viability, T/C [11] was 10.8% and the viability, T/C [12] was 0.59%. The viability, T/C (second compound 1 µM, first compound 0.949 µM) was 0.34%, the viability, T/C (second compound 1 µM, first compound 3 µM) was 0.55% and the viability, T/C [13] was 27.4%. The viability, T/C [14] was 27.7%, the viability, T/C [15] was 9.06% and the viability, T/C [16] was 0.29%. For the same compound, the viability, T/C (second compound 3.16 µM, first compound 0.949 µM) was 0.31%, the viability, T/C (second compound 3.16 µM, first compound 3 µM) was 0.87% and the viability, T/C [17] was 14.1%. The viability, T/C [18] was 12.7%, the viability, T/C [19] was 3.48% and the viability, T/C [20] was 1.09%. It also gave a viability, T/C (second compound 10 µM, first compound 0.949 µM) of 0.27% and a viability, T/C (second compound 10 µM, first compound 3 µM) of 1.61%.
With `Cn1nccc1Nc1nccc(-c2ccn(C(CO)c3ccc(Cl)c(F)c3)c(=O)c2)n1` (stereo not given) + CC(C)NCC(C(=O)N1CCN(c2ncnc3c2C(C)CC3O)CC1)c1ccc(Cl)cc1 the IC50 (second compound 0.1 µM) was 558 nM, the IC50 (second compound 0.316 µM) was under 31.6 nM and the IC50 (second compound 1 µM) was under 31.6 nM. It also gave an IC50 (second compound 3.16 µM) of under 31.6 nM, an IC50 (second compound 10 µM) of under 31.6 nM and a viability, T/C (second compound 0.1 µM, first compound 0.0316 µM) of 65.5%. For the same compound, the viability, T/C (second compound 0.1 µM, first compound 0.1 µM) was 66.5%, the viability, T/C (second compound 0.1 µM, first compound 0.316 µM) was 57.9% and the viability, T/C (second compound 0.1 µM, first compound 1 µM) was 41.6%. The viability, T/C (second compound 0.1 µM, first compound 3.16 µM) was 44.1%, the viability, T/C (second compound 0.1 µM, first compound 10 µM) was 35.8% and the viability, T/C (second compound 0.316 µM, first compound 0.0316 µM) was 45.6%. The viability, T/C (second compound 0.316 µM, first compound 0.1 µM) was 40.6%, the viability, T/C (second compound 0.316 µM, first compound 0.316 µM) was 24.3% and the viability, T/C (second compound 0.316 µM, first compound 1 µM) was 14.3%. It also gave a viability, T/C (second compound 0.316 µM, first compound 3.16 µM) of 16%, a viability, T/C (second compound 0.316 µM, first compound 10 µM) of 17.1% and a viability, T/C (second compound 1 µM, first compound 0.0316 µM) of 28.2%. For the same compound, the viability, T/C (second compound 1 µM, first compound 0.1 µM) was 23.2%, the viability, T/C (second compound 1 µM, first compound 0.316 µM) was 18% and the viability, T/C (second compound 1 µM, first compound 1 µM) was 13.1%. It also gave a viability, T/C (second compound 1 µM, first compound 3.16 µM) of 9.8%, a viability, T/C (second compound 1 µM, first compound 10 µM) of 4.51% and a viability, T/C (second compound 3.16 µM, first compound 0.0316 µM) of 22.9%. The viability, T/C (second compound 3.16 µM, first compound 0.1 µM) was 16.7%, the viability, T/C (second compound 3.16 µM, first compound 0.316 µM) was 11.5% and the viability, T/C (second compound 3.16 µM, first compound 1 µM) was 8.53%. It also gave a viability, T/C (second compound 3.16 µM, first compound 3.16 µM) of 4.72%, a viability, T/C (second compound 3.16 µM, first compound 10 µM) of 3.12% and a viability, T/C (second compound 10 µM, first compound 0.0316 µM) of 11.3%. It also gave a viability, T/C (second compound 10 µM, first compound 0.1 µM) of 7.13%, a viability, T/C (second compound 10 µM, first compound 0.316 µM) of 5.99% and a viability, T/C (second compound 10 µM, first compound 1 µM) of 5.42%. For the same compound, the viability, T/C (second compound 10 µM, first compound 3.16 µM) was 3.44% and the viability, T/C (second compound 10 µM, first compound 10 µM) was 1.71%.
